The assay deals with T1, human tyrosinase enzyme (Homo sapiens, UniProt P14679).
T1 sequence (P14679 19-529): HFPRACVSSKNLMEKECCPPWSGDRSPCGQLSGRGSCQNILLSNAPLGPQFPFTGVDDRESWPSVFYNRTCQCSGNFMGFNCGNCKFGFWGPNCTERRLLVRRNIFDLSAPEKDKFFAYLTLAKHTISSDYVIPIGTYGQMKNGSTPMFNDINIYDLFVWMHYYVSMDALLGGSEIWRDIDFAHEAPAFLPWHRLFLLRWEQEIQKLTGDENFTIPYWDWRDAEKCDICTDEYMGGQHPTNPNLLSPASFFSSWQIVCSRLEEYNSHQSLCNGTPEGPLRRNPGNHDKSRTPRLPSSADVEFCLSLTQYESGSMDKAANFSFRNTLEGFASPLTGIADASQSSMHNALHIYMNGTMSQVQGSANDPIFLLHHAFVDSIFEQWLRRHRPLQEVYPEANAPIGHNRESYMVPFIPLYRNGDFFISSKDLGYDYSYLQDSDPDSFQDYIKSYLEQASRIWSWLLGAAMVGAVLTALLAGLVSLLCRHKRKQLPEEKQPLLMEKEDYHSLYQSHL
In words: human tyrosinase inhibition (procedure as for mushroom tyrosinase). In kind it is biochemical. Particulars: sample at 7.5 ppm. On the procedure:
An indication of the efficacy of skin lightening was determined using an in-vitro tyrosinanse inhibition assay using mushroom tyrosinase. The assay comprised measuring O-diphenolase activities of mushroom tyrosinase with L-DOPA as substrate. This was determined spectrophotometrically by measuring the rate of dopachrome formation at 450 nm (ε=3700 M−1 cm−1). Inhibition studies were done by measuring the dopachrome formation in the presence of various extracts of plant material. The experiment was conducted using the following procedure:
The following stock solutions were prepared. 0.1 M phosphate buffer (KH2PO4, pH=6.5); 3.5 mM L-DOPA in phosphate buffer; 1 mg/ml mushroom tyrosinase enzyme (100 kU) in phosphate buffer. To the KH2PO4 buffer (q.s. to 200 μL) in a 96 well plate having flat bottom was added the desired sample (about 6 μl) followed by 8 μL of mushroom tyrosinase enzyme. This was left at room temperature in the dark for 15 min to enable incubation. Then L-DOPA (57 μL, […]) was added to the resultant solution and the progress of dopachrome formation was observed by measuring the absorbance at 450 nm (A450) on a Tecan spectrophotometer. Percent inhibition was calculated using (Control: without inhibitor) […]

As to `CCc1ccc(O)cc1O` [Example 5, ethyl resorcinol], the “% human tyrosinase inhibition” value came to 40%.
